pEC50, pIC50: −log10 of the molar value.
How the values were obtained:
[1] = molecular target: GLP-1 receptor CHO-K1 cells (Homo sapiens (Human), UniProt P43220); experiment: cAMP assay (HTRF, CISBIO kit); type: cell-based; conditions: for Emax: CHO-K1, cAMP stimulation ratio, Exendin-4 = 100%
Procedure: A cAMP assay test was performed according to a method optimized based on a protocol provided by a cAMP assay kit manufacturer (CISBIO). […] The cells were incubated at room temperature for 7 minutes. A cAMP-d2 conjugate reagent was prepared by mixing a cAMP conjugate with an elution buffer at a ratio of 1:4. An anti-cAMP cryptate conjugate reagent was prepared by mixing a […] with an elution buffer at a ratio of 1:4. Then, […] of the cAMP-d2 conjugate reagent was added to each of the wells. Subsequently, […] of the anti-cAMP cryptate conjugate reagent was added to each of the wells.

[2] = molecular target: hERG (human ether-a-go-go related gene) potassium channel (Homo sapiens (Human), UniProt Q12809); experiment: hERG analysis, automatic whole-cell patch clamp (QPatch 48 HT); type: cell-based; conditions: hERG-expressing CHO-K1 cell line, 1-100 μM, room temperature
Procedure: The inhibition of activity of hERG (human ether-a-go-go related gene) potassium channel by the compounds was evaluated by using an automatic whole-cell patch clamp system (QPatch 48 HT, Sophion Bioscience) that can directly measure the flow of ions through the potassium channel in cells. A CHO-K1 cell line stably expressing human hERG cDNA (Kv11.1, KCNH2) was used. The composition of the intracellular solution (mM) used for the analysis is 70 KF, 60 KCl, 15 NaCl, 5 HEPES, 5 EGTA, 5 MgATP, pH 7.3 by KOH.
The hERG-expressing CHO-K1 cell line was treated with each compound at five concentrations (1, 3, 10, 30 and 100 μM), and incubated with each test concentration for 5 minutes in duplicate. All experiments were conducted at room temperature. Change in current amplitude through the hERG channel was recorded every 8 seconds.
Stock solution for each compound is prepared in DMSO at 300× the final assay concentrations, and stored at −20° C. until the day of assay. On the day of the experiment, the stock was diluted into an extracellular solution to make final treatment concentration.
The change in hERG current before and after treatment with the test substance was recorded using the automatic whole cell patch clamp, and the hERG inhibition percentage (%) was calculated based on the control group.
In this calculation, an inhibitor dose-response curve analyzed by using a curve fitting program that uses a 4-parameter logistic dose response equation was used.

[3] = Intravenous glucose tolerance test (ivGTT) via oral administration, plasma insulin ELISA; type: in vivo; conditions: test substance 50 mg/5 mL/kg orally 60 minutes before glucose […] iv, maximum plasma insulin
Procedure: Before performing the ivGTT, the monkeys to be used in the test were fasted for 16 hours. After the fasting, fasting blood sugar was measured on the day of the test, and then the monkeys were grouped to minimize blood sugar deviation. On 60 minutes before glucose administration (−60 minutes), each of the monkeys was fixed on a correction chair, and the test substance (50 mg/5 mL/kg) was administered orally using a catheter for oral administration. The monkey fixed on the correction chair was anesthetized, and glucose (0.25 g/kg, 50% dextrose solution 0.5 mL/kg) was intravenously administered through a tube catheter inserted into the vein. […] The separated plasma samples were stored in a frozen state until insulin analysis.
(§1) The frozen plasma samples were slowly thawed on ice. An ELISA test was performed according to a protocol provided with a Monkey insulin ELISA kit (LSBio, Cat No. LS-F10306). An insulin concentration was calculated by drawing a standard curve using the absorbance of the insulin standard and applying the absorbance of each measured sample thereto.

[4] = Intravenous glucose tolerance test (ivGTT) via intravenous administration, plasma insulin ELISA; type: in vivo; conditions: test substance 1 mg/mL/kg intravenously, maximum plasma insulin
Procedure: Before the intravenous glucose tolerance test (ivGTT) was performed, monkeys to be used in the test were fasted for 16 hours. After the fasting, fasting blood sugar was measured on the day of the test, and the monkeys were grouped to minimize blood sugar deviation. Each of the monkeys was fixed on a correction chair and anesthetized. A tube catheter was inserted into a saphenous vein of the monkey immediately before glucose administration (0 minute), and the test substance (1 mg/mL/kg) was administered intravenously. After the drug administration, glucose (0.25 g/kg, 50% dextrose solution 0.5 mL/kg) was intravenously administered through the tube catheter inserted into the vein. […] The separated plasma samples were stored in a frozen state until insulin analysis.
as §1

GLP-1 receptor CHO-K1 cells, sequence (P43220 24-463): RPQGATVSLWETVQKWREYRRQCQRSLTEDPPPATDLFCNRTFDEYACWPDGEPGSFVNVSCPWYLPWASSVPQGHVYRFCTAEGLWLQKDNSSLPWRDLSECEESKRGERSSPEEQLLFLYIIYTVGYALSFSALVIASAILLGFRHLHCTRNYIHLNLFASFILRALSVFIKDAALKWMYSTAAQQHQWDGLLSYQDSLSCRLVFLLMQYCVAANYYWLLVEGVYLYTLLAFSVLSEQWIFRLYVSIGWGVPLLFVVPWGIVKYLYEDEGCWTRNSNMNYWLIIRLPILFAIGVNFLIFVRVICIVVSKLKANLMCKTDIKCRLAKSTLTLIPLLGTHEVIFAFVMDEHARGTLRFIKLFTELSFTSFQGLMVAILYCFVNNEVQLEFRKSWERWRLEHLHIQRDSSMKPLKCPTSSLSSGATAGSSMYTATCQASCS
hERG (human ether-a-go-go related gene) potassium channel, sequence (Q12809 whole entry): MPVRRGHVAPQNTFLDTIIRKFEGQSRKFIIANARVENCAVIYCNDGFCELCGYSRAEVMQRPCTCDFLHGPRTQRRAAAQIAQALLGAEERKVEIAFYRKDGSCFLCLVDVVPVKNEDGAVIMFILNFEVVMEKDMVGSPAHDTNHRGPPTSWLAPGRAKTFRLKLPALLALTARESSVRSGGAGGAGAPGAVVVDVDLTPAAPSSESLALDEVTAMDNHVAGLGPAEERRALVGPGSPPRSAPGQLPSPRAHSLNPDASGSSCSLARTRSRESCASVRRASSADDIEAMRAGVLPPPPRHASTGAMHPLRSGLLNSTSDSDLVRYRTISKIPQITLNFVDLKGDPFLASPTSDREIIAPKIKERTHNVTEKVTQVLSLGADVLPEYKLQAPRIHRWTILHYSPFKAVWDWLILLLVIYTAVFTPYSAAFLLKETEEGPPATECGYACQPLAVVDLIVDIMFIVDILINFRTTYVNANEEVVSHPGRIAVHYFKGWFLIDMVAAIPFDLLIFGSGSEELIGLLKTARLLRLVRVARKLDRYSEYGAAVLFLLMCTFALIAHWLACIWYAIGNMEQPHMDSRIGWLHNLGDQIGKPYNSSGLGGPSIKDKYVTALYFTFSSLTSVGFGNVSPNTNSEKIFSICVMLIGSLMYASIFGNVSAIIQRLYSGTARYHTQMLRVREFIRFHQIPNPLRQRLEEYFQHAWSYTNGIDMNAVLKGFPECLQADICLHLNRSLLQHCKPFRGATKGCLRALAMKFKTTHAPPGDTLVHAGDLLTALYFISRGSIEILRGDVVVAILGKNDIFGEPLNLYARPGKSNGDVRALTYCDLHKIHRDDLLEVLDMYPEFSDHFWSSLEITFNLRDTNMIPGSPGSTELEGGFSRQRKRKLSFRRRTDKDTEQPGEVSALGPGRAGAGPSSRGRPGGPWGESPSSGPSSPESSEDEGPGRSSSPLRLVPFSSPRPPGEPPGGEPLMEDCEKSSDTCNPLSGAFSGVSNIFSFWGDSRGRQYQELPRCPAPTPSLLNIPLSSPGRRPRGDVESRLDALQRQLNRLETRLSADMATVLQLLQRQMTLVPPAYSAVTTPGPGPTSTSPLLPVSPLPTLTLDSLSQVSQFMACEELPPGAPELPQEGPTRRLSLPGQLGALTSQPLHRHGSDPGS

SMILES	pEC50 [1]	Emax [1] [%]	pIC50 [2]	Monkey ivGTT (po) insulinmax [3]	Monkey ivGTT (iv) insulinmax (IU/mL) [4]
O=C(O)c1ccc2nc(CN3CCN(c4cccc(OCc5ncc(Cl)cc5F)n4)CC3)n(C[C@@H]3CCO3)c2c1 [Example 16, (S)-2-((4-(6-((5-chloro-3-fluoropyridin-2-yl)methoxy)pyridin-2-yl)piperazin-1-yl)methyl)-1-(oxetan-2-ylmethyl)-1H-benzo[d]imidazole-6-carboxylic acid]	> 7.30	102	< 4.00		
N#Cc1ccc(COc2cccc(N3CCN(Cc4nc5ccc(C(=O)O)cc5n4C[C@@H]4CCO4)CC3)n2)nc1 [Example 2, (S)-2-((4-(6-((5-cyanopyridin-2-yl)methoxy)pyridin-2-yl)piperazin-1-yl)methyl)-1-(oxetan-2-ylmethyl)-1H-benzo [d]imidazole-6-carboxylic acid]	> 7.30	108	< 4.00	++ (a maximum insulin concentration is greater than 100 IU/mL)	
C[C@H]1CN(c2cccc(OCc3ccc(C#N)cn3)n2)CCN1Cc1nc2ccc(C(=O)O)nc2n1C[C@@H]1CCO1 [Example 6, 2-(((S)-4-(6-((5-cyanopyridin-2-yl)methoxy)pyridin-2-yl)-2-methylpiperazin-1-yl)methyl)-3-(((S)-oxetan-2-yl)methyl)-3H-imidazo[4,5-b]pyridine-5-carboxylic acid]			< 4.00	+ (a maximum insulin concentration is 50˜100 IU/mL)	++ (a maximum insulin concentration is greater than 250 IU/mL)
C[C@H]1CN(c2cccc(OCc3ccc(C#N)cn3)n2)CCN1Cc1nc2ccc(C(=O)O)cc2n1C[C@@H]1CCO1 [Example 1, 2-(((S)-4-(6-((5-cyanopyridin-2-yl)methoxy)pyridin-2-yl)-2-methylpiperazin-1-yl)methyl)-1-(((S)-oxetan-2-yl)methyl)-1H-benzo[d]imidazole-6-carboxylic acid]	> 7.30	104	< 4.00	+ (a maximum insulin concentration is 50˜100 IU/mL)	++ (a maximum insulin concentration is greater than 250 IU/mL)
O=C(O)c1ccc2nc(CN3CCN(c4cccc(OCc5ccc(Cl)cn5)n4)CC3)n(C[C@@H]3CCO3)c2c1 [Example 17, (S)-2-((4-(6-((5-chloropyridin-2-yl)methoxy)pyridin-2-yl)piperazin-1-yl)methyl)-1-(oxetane-2-ylmethyl)-1H-benzo [d]imidazole-6-carboxylic acid]	> 7.30	101	< 4.00		+ (a maximum insulin concentration is 200˜250 IU/mL)
N#Cc1ccc(COc2cccc(N3CCN(Cc4nc5ccc(C(=O)O)cc5n4C[C@@H]4CCO4)CC3)c2)nc1 [Example 14, (S)-2-((4-(3-((5-cyanopyridin-2-yl)methoxy)phenyl)piperazin-1-yl)methyl)-1-(oxetan-2-ylmethyl)-1H-benzo[d]imidazole-6-carboxylic acid]	> 7.30	91.4	< 4.00		+ (a maximum insulin concentration is 200˜250 IU/mL)
N#Cc1ccc(COc2cccc(N3CCN(Cc4nc5ccc(C(=O)O)nc5n4C[C@@H]4CCO4)CC3)c2)nc1 [Example 13, (S)-2-((4-(3-((5-cyanopyridin-2-yl)methoxy)phenyl)piperazin-1-yl)methyl)-3-(oxetan-2-ylmethyl)-3H-imidazo[4,5-b]pyridine-5-carboxylic acid]	> 7.30	128	< 4.00		+ (a maximum insulin concentration is 200˜250 IU/mL)
O=C(O)c1ccc2nc(CN3CCC(c4cccc(OCc5ncc(Cl)cc5F)c4)CC3)n(C[C@@H]3CCO3)c2c1 [Example 10, (S)-2-((4-(3-((5-chloro-3-fluoropyridin-2-yl)methoxy)phenyl)piperidin-1-yl)methyl)-1-(oxetane-2-ylmethyl)-1H-benzo[d]imidazole-6-carboxylic acid]	7.00 to 7.30	96.4			
N#Cc1ccc(COc2cccc(N3CCN(Cc4nc5ccc(C(=O)O)nc5n4C[C@@H]4CCO4)CC3)n2)nc1 [Example 5, (S)-2-((4-(6-((5-cyanopyridin-2-yl)methoxy)pyridin-2-yl)piperazin-1-yl)methyl)-3-(oxetane-2-ylmethyl)-3H-imidazo[4,5-b]pyridine-5-carboxylic acid]	7.00 to 7.30	111			

From patent US11643403B2 (ILDONG PHARMACEUTICAL CO., LTD., priority 2019, dated 2023)
